Experimental data from publication PMC8148468, “Shikimic acid protects skin cells from UV-induced senescence through activation of the NAD+-dependent deacetylase SIRT1” (Aging (Albany NY), 2021).

How the values were obtained:
HDF cells = test: SRB and Trypan blue cell viability assays; type: cell-based, human; conditions: Shikimic acid 5, 10, 25 and 50 mM, 24h
Procedure: Student T-test, *p<0.05, **p<0.01, ***p<0.001.
The protocol for senescence induction using UVB irradiation is described in the Supplementary Methods. SA-β-Gal staining, WST-1, sulforhodamine B (SRB) and trypan blue assays were performed as previously described. For the siRNA experiments, the protocol for senescence induction using UVB irradiation was the same as in the Supplementary Methods. Specific siRNA (Horizon discovery, UK) for SIRT1, SIRT2, SIRT6, BiP or scramble siRNA were incubated for 6 hours before each irradiation step.

spliced-XBP1 = test: Spliced XBP1 mRNA (qPCR); type: cell-based, human; conditions: UVB-irradiated cells, SA treatment
Procedure: Figure 5 (A) Western-blot of BiP proteins levels in UVB or non UVB irradiated cells treated with SA at the indicated concentrations in presence or absence of EX-527 1 μM. (B) Quantification of n=3 experiments as (A). The levels of BiP are normalized by the loading control (histone H3) and represented related to the conditions in UVB irradiated cells in absence of SA and EX-527. Student T-test, *p<0.05. (C) Percentage of SA-β-Gal in assays performed as in Figure 3C. (D) Levels of spliced and unspliced XBP1 mRNA monitored by qPCR analysis in cells treated in the indicated conditions in presence or absence of SA and/or EX-527. The levels were normalized by internal controls and represented in each case related to the conditions in UVB irradiated cells in absence of SA and EX-527. […]
RNA was extracted from cell pellets using the Total RNA Purification Kit (Norgen, Canada), according to the manufacturer’s protocol. Extracted RNA was quantified using a NanoDrop® ND-1000 UV-Vis Spectrophotometer (Thermo Fisher Scientific, USA) and 300 ng of RNA were retrotranscribed to cDNA using the PrimeScriptTM RT reagent kit (Takara Bio Inc., Japan). cDNA was diluted 1/10 in ultrapure water and qPCR mix was prepared by adding cDNA (12 ng), SYBR green supermix (Bio Rad, USA), forward and reverse primers (0.2μM). […] The results were analyzed with Bio-Rad CFX Manager software. […]

## O=C(O)C1=C[C@@H](O)[C@@H](O)[C@H](O)C1 [Shikimic acid]
HDF cells
  cytotoxicity (SRB/trypan blue assay): no differences in cytotoxicity
spliced-XBP1
  spliced XBP1 mRNA levels: induced a decrease in spliced-XBP1
